Test results as given in patent US9353075B2, “Disubstituted beta-lactones as inhibitors of N-acylethanolamine acid amidase (NAAA)” (The Regents of the University of California, priority 2011, dated 2016).

How the values were obtained:
r-NAAA = r-NAAA (Rattus norvegicus (Rat), UniProt Q5KTC7); assay: r-NAAA inhibition, rat lung lysosomal NAAA preparation, UPLC/MS; format: biochemical; details: for inhibition at 3 µM: read-out: r-NAAA % inhib. @ 3 μM
Experimental: Lysosomal NAAA protein preparation were obtained by homogenizing male Sprague-Dawley rat lungs (Charles River) in 20 mM Tris-HCl buffer pH 7.4 containing 0.32M sucrose. Samples were centrifuged at 800×g for 15 minutes at 4° C. Supernatants were then centrifuged at 12,000 g for 30 minutes at 4° C. Pellets were then resuspended in PBS pH 7.4 and subjected to a freeze/thaw cycle at −80° C. The suspension was finally centrifuged at 105,000×g for 1 hour at 4° C. The supernatant was then used in the enzymatic assay.
NAAA protein preparation was pre-incubated with various concentrations of test compounds or vehicle control in 100 mM NaH2PO4/Citrate buffer, 1% Triton-X, 3 mM DTT (pH 4.5) for 30 minutes at 37° C. Samples were then incubated with heptadecenoylethanolamide (50 μM, Avanti Polar Lipids) at 37° C. for 30 min. The reaction was terminated by addition of cold methanol containing heptadecanoic acid (NuCheck Prep) as internal standard. Samples were then analyzed by UPLC/MS (Acquity, Waters). Heptadecenoic and heptadecanoic acids were eluted on an Acquity UPLC BEH C18 column (50 mm length, 2.1 mm i.d., 1.7 μm pore size, Waters) isocratically at 0.5 mL/min for 1.5 min with a solvent mixture of 95% methanol and 5% water, both containing 0.25% Acetic Acid and 5 mM Ammonium Acetate. The column temperature was 40° C. Electrospray ionization was in the negative mode, capillary voltage was 0.5 kV, cone voltage was […], desolvation temperature was 500° C. N2 was used as drying gas at a flow rate of 1000 L/hour and a temperature of 500° C. The [M−H]^− ion was monitored in the selected-ion monitoring mode (m/z values: heptadecenoic acid 267.37, heptadecanoic acid 269.37). Calibration curves were generated using commercial heptadecenoic acid (NuCheck Prep). Inhibition of NAAA activity was calculated as reduction of heptadecenoic acid in the samples compared to vehicle controls. IC50 values were calculated by non-linear regression analysis of log [concentration]/inhibition curves using GraphPad Prism 5 (GraphPad Software Inc., CA—USA) applying a standard slope curve fitting.

h-NAAA [1] = molecular target: T1, h-NAAA (Homo sapiens (Human), UniProt Q02083); assay: UPLC/MS h-NAAA assay; format: biochemical
Experimental: NAAA protein preparation (10 μg) was pre-incubated with various concentrations of test compound or vehicle control in 100 mM NaH2PO4, 100 mM Tri Sodium Citrate Dehydrate, 0.1% Triton-X 100, 3 mM DTT, pH 4.5 for 30 min at 37° C. Duplicate samples were then incubated with 50 μM C17:1 10-cis-heptadecenoylethanolamide (Avanti Polar Lipids, Alabaster, Ala.—USA) at 37° C. for 30 minutes. The reaction was terminated by the addition of 0.2 mL of cold methanol containing 1 nmol of heptadecanoic acid (NuChek Prep, Elysian, Minn.—USA) as internal standard. Samples were then analyzed by UPLC/MS. Heptadecenoic and heptadecanoic acids were eluted on an Acquity UPLC BEH C18 column (50 mm length, 2.1 mm i.d., 1.7 μm pore size, Waters) isocratically at 0.5 mL/min for 1.5 min with a solvent mixture of 95% methanol and 5% water, both containing 0.25% Acetic Acid and 5 mM Ammonium Acetate. The column temperature was 40° C. Electrospray ionization was in the negative mode, capillary voltage was 2.7 kV, cone voltage was 45 V, extractor voltage was 3 V. The source temperature was 150° C. with a desolvation temperature of 400° C. N2 was used as drying gas at a cone flow of 100 L/hour and a desolvation flow of […]. The [M−H]-ion was monitored in the selected-ion monitoring mode (m/z values: heptadecenoic acid 267.37, heptadecanoic acid 269.37). Calibration curves were generated using commercial heptadecenoic acid (NuCheck Prep) Inhibition of NAAA activity was calculated as reduction of heptadecenoic acid in the samples compared to vehicle controls. IC50 values were calculated by non-linear regression analysis of log [concentration]/inhibition curves using GraphPad Prism 5 (GraphPad Software Inc., CA—USA) applying a standard slope curve fitting.

Acid Ceramidase (AC) = Acid Ceramidase (AC) (Rattus norvegicus (Rat), UniProt Q6P7S1); assay: Acid ceramidase inhibition, recombinant rat AC, LC-MS; format: biochemical; details: for inhibition at 10 µM: read-out: r-AC % inhib. @ 10 μM
Experimental: The PCR (High Fidelity PCR Master, Roche) product was subcloned into a pEF6-[…] vector (Invitrogen) to construct a mammalian expression vector encoding […]-tagged rat AC. HEK293 cells were transfected with pEF6-rAC-[…] using Super-Fect reagent (Qiagen) and screened with G418 (0.3 mg/mL). Cells were suspended in 20 mM Tris HCl (pH 7.5) containing 0.32M sucrose, sonicated and centrifuged at 800×g for 15 minutes at 4° C. The supernatants were centrifuged again at 12,000×g for 30 minutes at 4° C. The pellets were suspended in phosphate-buffered saline (PBS) and subjected to 2 freeze-thaw cycles at -80° C. The suspensions were centrifuged at 105,000×g for 1 hour at 4° C. The supernatants containing recombinant AC were kept at -80° C. until use. Protein concentration was measured using the bicinchoninic acid (BCA) assay (Pierce). […] Reactions were stopped by addition of a mixture of chloroform/methanol (2:1, vol/vol) containing 1 nmol of heptadecanoic acid (HDA; NuChek Prep). […] HDA was eluted on an XDB Eclipse C18 column isocratically at 2.2 mL/min for 1 minute with a solvent mixture of 95% methanol and 5% water, both containing 0.25% acetic acid and 5 mM ammonium acetate. The column temperature was 50° C. Electrospray ionization (ESI) was in the negative mode, capillary voltage as 4 kV, and fragmentor voltage was 100 V. N2 was used as drying gas at a flow rate of 13 L/min and a temperature of 350° C. Nebulizer pressure was set at 60 psi. We monitored [M-H]- in the selected-ion monitoring (SIM) mode using HDA as internal standard. Calibration curves were generated using commercial lauric acid (Nu-Chek Prep; m/z=199).

h-NAAA [2] = molecular target: T1, h-NAAA; assay: Fluorogenic h-NAAA assay; format: biochemical
Experimental: (§1) The assay was run in Optiplate 96-wells black plates, in a total reaction volume of 200 mL. NAAA protein preparations (4 ng) were pre-incubated for 10 minutes with various concentrations of test compounds or vehicle control (5% DMSO) in 100 mM citrate/phosphate buffer (pH 4.5) containing 3.0 mM DTT, 0.1% Triton X-100, 0.05% BSA, 150 mM NaCl. N-(4-methyl-2-oxo-chromen-7-yl)-hexadecanamide was used as a substrate (5.0 μM) and the reaction carried over for 30 minutes at 37° C. Fluorescence in the samples was quantified in a Perkin Elmer Envision plate reader using an excitation wavelength of 360 nm and emission 460 nm. IC50 values were calculated by non-linear regression analysis of log [concentration]/inhibition curves using GraphPad Prism 5 (GraphPad Software Inc., CA—USA) applying a standard slope curve fitting.
as §1, with “μL.” for “mL.”, “preparation (4.0 μg) was” for “preparations (4 ng) were”, “min” for “minutes”, “The” for “Fluorescence in the”, “were then read” for “was quantified”

DNFB-induced scratching = DNFB-induced scratching in mice; format: in vivo, mouse; details: topical, single dose
Experimental: The methods included the following. Dermatitis was produced in mice using 2-4 dinitrofluorobenzene (DNFB) as described by Buckley and Nijkamp (1994), Am J Respir Grit Care Med 149:400-7. Mice were sensitized on two consecutive days with a 0.5% DNFB solution applied to the shaved abdomen. At day 8, the ears were challenged with a 0.2% DNFB solution. Ear thickness was determined by using a micrometer. Scratching was evaluated as number of episodes per 60 minutes period. Data were analysed by ANOVA followed by the Bonferroni's test. See also Hargreaves K, et al (1988), Pain 32: 77-88 for related information.
The methods include the following. Itching in mice was induced with DNFB as previously described. Additional studies were done with 48/80 model (an inducer of mast cell degranulation). 48/80 was given subcutaneously (30 mg per kg). Data were analysed by ANOVA followed by Bonferroni's test for multiple comparisons.

[3] = tested on: 48/80-induced scratching (mast cell degranulation); assay: Compound 48/80-induced scratching in mice; format: in vivo, mouse; details: topical, single dose, 48/80 30 mg per kg s.c.
Experimental: The methods include the following. Itching in mice was induced with DNFB as previously described. Additional studies were done with 48/80 model (an inducer of mast cell degranulation). 48/80 was given subcutaneously (30 mg per kg).

Sequence of r-NAAA (Q5KTC7 34-362): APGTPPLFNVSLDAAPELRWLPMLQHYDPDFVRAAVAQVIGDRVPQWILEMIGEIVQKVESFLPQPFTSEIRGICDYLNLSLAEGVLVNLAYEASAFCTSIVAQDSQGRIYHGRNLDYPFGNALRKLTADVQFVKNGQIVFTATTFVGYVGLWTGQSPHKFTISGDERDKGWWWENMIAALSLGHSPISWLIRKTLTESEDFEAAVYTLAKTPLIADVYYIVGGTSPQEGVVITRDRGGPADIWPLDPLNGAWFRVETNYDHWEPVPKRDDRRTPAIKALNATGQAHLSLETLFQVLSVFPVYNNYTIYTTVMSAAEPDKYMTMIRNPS
Sequence of Acid Ceramidase (AC) (Q6P7S1 21-394): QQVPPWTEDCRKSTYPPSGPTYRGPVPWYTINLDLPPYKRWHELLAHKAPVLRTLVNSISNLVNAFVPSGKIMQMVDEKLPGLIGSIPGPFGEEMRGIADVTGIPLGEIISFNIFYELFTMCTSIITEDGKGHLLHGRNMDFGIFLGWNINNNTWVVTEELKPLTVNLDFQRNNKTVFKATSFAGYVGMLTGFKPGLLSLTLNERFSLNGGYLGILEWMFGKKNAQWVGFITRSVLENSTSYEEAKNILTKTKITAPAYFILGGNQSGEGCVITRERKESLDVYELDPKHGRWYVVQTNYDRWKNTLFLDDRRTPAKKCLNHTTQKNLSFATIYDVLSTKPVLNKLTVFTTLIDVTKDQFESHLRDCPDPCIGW
T1 sequence (Q02083 29-359): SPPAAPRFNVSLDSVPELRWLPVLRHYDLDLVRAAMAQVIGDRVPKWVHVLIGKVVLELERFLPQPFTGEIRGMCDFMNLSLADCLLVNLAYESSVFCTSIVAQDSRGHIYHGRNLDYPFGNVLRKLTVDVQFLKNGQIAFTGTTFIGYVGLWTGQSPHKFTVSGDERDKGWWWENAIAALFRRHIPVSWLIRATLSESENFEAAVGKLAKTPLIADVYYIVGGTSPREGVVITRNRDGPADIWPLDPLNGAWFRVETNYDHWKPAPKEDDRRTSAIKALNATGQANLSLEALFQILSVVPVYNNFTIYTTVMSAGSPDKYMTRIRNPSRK

Row | SMILES | IC50 (r-NAAA) | IC50 (h-NAAA [1]) | IC50 (h-NAAA [2]) | inhibition at 3 µM (r-NAAA) | also measured
1 | C[C@@H]1OC(=O)[C@@H]1NC(=O)OCCCOCc1ccccc1 [Example 18, 3-Benzyloxypropyl-N-[(2S,3R)-2-methyl-4-oxo-oxetan-3-yl]-carbamate] | 50 nM | 18 nM |  |  | inhibition at 10 µM (Acid Ceramidase (AC)): < 10%
2 | CCCCCCC[C@H](C)OC(=O)N[C@H]1C(=O)O[C@H]1C [Example 7, [(1S)-1-methyloctyl]-N-[(2S,3R)-2-methyl-4-oxo-oxetan-3-yl]-carbamate] | 16 nM | 5 nM |  |  | inhibition at 10 µM (Acid Ceramidase (AC)): 45%
3 | CC(CN1c2ccccc2Sc2ccccc21)N(C)C (stereo not shown) [promethazine, reference compound] |  |  |  |  | DNFB-induced scratching (DNFB-induced scratching): without effect; 48/80-induced scratching [3]: effective
4 | C[C@H]1C[C@H]2[C@@H]3CCC4=CC(=O)C=C[C@]4(C)[C@@]3(F)[C@@H](O)C[C@]2(C)[C@@]1(O)C(=O)CCl [clobetasol, reference compound] |  |  |  |  | DNFB-induced scratching (DNFB-induced scratching): increased scratching; 48/80-induced scratching [3]: without effect
5 | C[C@@H]1OC(=O)[C@@H]1NC(=O)OCc1ccc(-c2ccccc2)cc1 [Example 17, (4-phenylphenyl)methyl-N-[(2S,3R)-2-methyl-4-oxo-oxetan-3-yl]-carbamate] | 7 nM | 7 nM |  |  | inhibition at 10 µM (Acid Ceramidase (AC)): 30%
6 | C[C@@H]1OC(=O)[C@@H]1NC(=O)OC12CC3CC(CC(C3)C1)C2 [Example 12, Tricyclo[3.3.1.1^3,7]dec-1-yl [(2S,3R)-2-methyl-4-oxooxetan-3-yl]-carbamate] | 870 nM | 540 nM |  |  | 

Now from value to molecule, other results behind:

Row | IC50 (r-NAAA) | IC50 (h-NAAA [1]) | IC50 (h-NAAA [2]) | inhibition at 3 µM (r-NAAA) | SMILES | also measured
7 | 20 nM | 9 nM | 8 nM |  | C[C@@H]1OC(=O)[C@@H]1NC(=O)OCCCCC1CCCCC1 [Example 19, 4-cyclohexylbutyl-N-[(2S,3R)-2-methyl-4-oxo-oxetan-3-yl]-carbamate] | 
8 |  |  | 12 nM | 98% | CC(C)[C@H]1OC(=O)[C@@H]1NC(=O)OC(C)(C)CCCCc1ccccc1 (relative stereo) [Example 55, (1,1-Dimethyl-5-phenyl-pentyl)-N-[(2R*,3R*)-2-isopropyl-4-oxo-oxetan-3-yl]-carbamate] | 
9 |  |  | 9 nM | 89% | CC[C@@H]1OC(=O)[C@@H]1NC(=O)OCCCCCc1ccccc1 (relative stereo) [Example 49, 5-Phenylpentyl-N-[(2S*,3R*)-2-ethyl-4-oxo-oxetan-3-yl]-carbamate] | 
10 | 16 nM | 5 nM |  |  | C[C@@H]1OC(=O)[C@@H]1NC(=O)OCCCCCC1CCCCC1 [Example 35, 5-Cyclohexylpentyl-N-[(2S,3R)-2-methyl-4-oxo-oxetan-3-yl]-carbamate] | inhibition at 10 µM (Acid Ceramidase (AC)): < 10%
11 | 30 nM | 14 nM |  |  | CC(CCCCc1ccccc1)OC(=O)N[C@H]1C(=O)O[C@H]1C (mixture of isomers) [Example 22, [(1R) and (1S)-1-methyl-5-phenyl-pentyl]-N-[(2S,3R)-2-methyl-4-oxo-oxetan-3-yl]-carbamate] | inhibition at 0.3 µM (Acid Ceramidase (AC); read-out: r-AC % inhib. @ 0.3 μM): < 10%
12 |  |  | 4 nM | 92% | CC[C@H]1OC(=O)[C@@H]1NC(=O)OCCCCCc1ccccc1 (relative stereo) [Example 47, 5-Phenylpentyl-N-[(2R*,3R*)-2-ethyl-4-oxo-oxetan-3-yl]-carbamate] | 
13 |  |  | 278 nM | 67% | CC(C)(C)[C@@H]1OC(=O)[C@@H]1NC(=O)OCCCCCc1ccccc1 (relative stereo) [Example 58, 5-Phenylpentyl-N-[(2S*,3R*)-2-tert-butyl-4-oxo-oxetan-3-yl]-carbamate] | 
14 |  |  | 267 nM | 75% | CC(C)(C)[C@H]1OC(=O)[C@@H]1NC(=O)OCCCCCc1ccccc1 (relative stereo) [Example 56, 5-Phenylpentyl-N-[(2R*,3R*)-2-tert-butyl-4-oxo-oxetan-3-yl]-carbamate] | 
